Measurements as given in US11939334B2, “Substituted pyrimido[4,5-b][1,4]diazepines as PLK1 degradation inducers” (UPPTHERA, INC., priority 2021, dated 2024).

What was measured:
[1] = Cell viability assay for MRC-5 cell line; details: human
Procedure: Cell Viability Assay for MRC-5 Cell Line
(1) Culture of MRC-5 Cell Line
The MRC-5 cell line was purchased from Korea Cell Line Bank (KCLB), Seoul, Korea. Passage of cultured cells was maintained within P15.
6×10^3 cells were seeded for each well of a 96-well plate (SPL), and the cells were cultured in total volume of 150 μL.
Each well was mixed with a medium and treated, and the volume was set to 50 μL, so that the total volume of each well was 200 μL. Then, it was cultured in 37° C.
The following compounds were used as comparative examples, and the cell viability assay was performed in the same manner as in the compounds of Examples.
(3) Cytotoxicity Experiment
After treating EZ-Cytox (DOGEN, Cat. NO. EZ-3000, Lot. No. DLS2112) 20 μL in each well of completely cultured plate, it was cultured in 37° C. CO2 incubator for 4 hours. […] The data were converted into graphs using the Prism (ver. 9) program.

PLK1 = target: T1, PLK1 (Homo sapiens, UniProt P53350); assay: Luciferase assay for PLK1 in HeLa LgBit (Plk1-HiBit KI) cell line; format: cell-based; details: 300 nM compound, luminescence after 9 hours
T1 construct: endogenous in cells; host or cells: HeLa cells stably expressing LgBit, with CRISPR/Cas9 knock-in of HiBit at the endogenous PLK1 locus
T1 sequence (P53350 whole entry): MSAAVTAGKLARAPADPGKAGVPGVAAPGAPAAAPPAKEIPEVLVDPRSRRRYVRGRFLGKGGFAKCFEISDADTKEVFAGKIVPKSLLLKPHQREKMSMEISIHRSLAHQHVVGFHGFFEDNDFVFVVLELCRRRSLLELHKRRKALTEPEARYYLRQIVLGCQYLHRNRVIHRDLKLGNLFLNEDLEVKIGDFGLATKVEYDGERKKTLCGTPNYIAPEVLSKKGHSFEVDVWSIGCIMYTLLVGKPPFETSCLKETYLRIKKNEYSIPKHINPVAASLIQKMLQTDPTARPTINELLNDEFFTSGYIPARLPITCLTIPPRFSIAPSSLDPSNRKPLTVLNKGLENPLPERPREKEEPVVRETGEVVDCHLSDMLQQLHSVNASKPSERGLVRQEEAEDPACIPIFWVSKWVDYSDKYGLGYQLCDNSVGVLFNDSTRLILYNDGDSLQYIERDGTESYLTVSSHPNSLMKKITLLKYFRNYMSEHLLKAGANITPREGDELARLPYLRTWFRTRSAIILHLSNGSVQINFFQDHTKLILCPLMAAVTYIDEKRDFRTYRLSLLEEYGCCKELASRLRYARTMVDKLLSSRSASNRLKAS
Procedure: 2. Luciferase Assay for PLK1
(1) Preparation and Culture of HeLa LgBit (Plk1-HiBit KI) Cell Line
A HeLa cell line in which the LgBit vector was transfected and expressed stably was prepared. Then, after constructing gRNA and donor to express the HiBit amino acid sequence behind the C-terminal of the Plk1 gene, which was inherent in the cell, it was inserted into the cell together with a vector capable of expressing CRISPR/Cas9. Only the cells in which the insertion was completed and knock-in had progressed were selected, sub-cultured and used.
(2) Treatment of Compounds of the Present Invention and Method of Luciferase Assay
In the case of HeLa LgBit (Plk1-HiBit KI), the compounds were treated after being released after thymidine block, and the process was as follows. Thymidine (Sigma-Aldrich Cat. No. T9250-5G) was completely dissolved in DW and used in the experiment. For thymidine block, the products were treated with 2 mM of thymidine and then incubated for 24 hours. For release and chemical treatment, the medium was suctioned and washed with 1×PBS. TrypLE™ was added and incubated in 37° C. CO2 incubator for 5 min. Cells neutralized by adding complete media were counted through a counter. For each well of a 96-well culture plate (SPL), 3.3×10^4 cells and a total medium volume of 150 μL were seeded and incubated in a CO2 incubator.
Each cell line was incubated in a CO2 incubator for 18 hours, and Endurazine was added to each well to make up 4% of the total volume. After adding the compound of the present invention in a 96-well white plate (SPL) to a concentration of 300 nM, the wavelength of the plate reader (BMG Labtech, CLARIOstar Plus) was set to […], and then the luminescence was tracked in real time.
The results are shown in Table 2 below and FIGS. 1 and 2.
In Table 2, Activity represents the ratio of the luminescence value of each Exemplary Compound treatment group to DMSO treatment group (+++: <0.3, ++ <0.6, + <0.7).

H526 cell line = assay: Cell viability assay for H526 cell line; format: cell-based; details: Homo sapiens, NCI-H526, 120 h; H526 cells, 5 days, EZ-Cytox, 0.46-3000 nM
Procedure: 3. Cell Viability Assay for H526 Cell Line
(1) Culture of NCI-H526 Cell Line
(2) Treatment of Compounds of the Present Invention and Method of Cell Viability Assay
After treating the compound to each well to make the total volume of 200 μL, it was cultured in a CO2 incubator (Thermo Fisher Science, Cat. No. 4111) for 5 days.
The absorbance of the completely cultured sample was measured by setting the wavelength of a plate reader (BMG Labtech, CLARIOstar Plus) to […], and was measured after shaking for 3 minutes in a plate reader before measurement.
In Table 3, Activity represents IC50 value of each Exemplary Compound treatment group to H526 cell line (A: <30 nM, B: <50 nM, C: <100 nM, D: <200 nM, E: <400 nM).

Row | Compound | Activity: ratio of the luminescence value of each Exemplary Compound treatment group to DMSO treatment group (PLK1) | IC50 at 5 days ([1]; MRC-5 cells (normal cell line)) [µM] | IC50 (H526 cell line) [µM] | IC50 at 5 days [1] [µM]
1 | COc1cc(C(=O)NC2CC3(CCN(CC4CCN(c5ccc(C6CCC(=O)NC6=O)cc5F)C(C)C4)CC3)C2)ccc1Nc1ncc2c(n1)N(C(C)C)CC(F)(F)C(=O)N2C (centres unmarked) [Compound 32, 4-((7,7-difluoro-9-isopropyl-5-methyl-6-oxo-6,7,8,9-tetrahydro-5H-pyrimido[4,5-b][1,4]diazepin-2-yl)amino)-N-(7-((1-(4-(2,6-dioxopiperidin-3-yl)-2-fluorophenyl)-2-methylpiperidin-4-yl)methyl)-7-azaspiro[3.5]nonan-2-yl)-3-methoxybenzamide] | +++ (+++: <0.3) | – | < 0.03 | > 10
2 | COc1cc(C(=O)NN2CCN(C3CCN(c4ccc(C5CCC(=O)NC5=O)cc4F)C3)CC2)ccc1Nc1ncc2c(n1)N(C(C)C)CC(F)(F)C(=O)N2C (centres unmarked) [Compound 38, 4-((7,7-difluoro-9-isopropyl-5-methyl-6-oxo-6,7,8,9-tetrahydro-5H-pyrimido[4,5-b][1,4]diazepin-2-yl)amino)-N-(4-(1-(4-(2,6-dioxopiperidin-3-yl)-2-fluorophenyl)pyrrolidin-3-yl)piperazin-1-yl)-3-methoxybenzamide] | +++ (+++: <0.3) | > 10 | < 0.05 | –
3 | COc1cc(C(=O)NC2CC3(CCN(CC4CCN(c5ccc(C6CCC(=O)NC6=O)cc5F)CC4)CC3)C2)ccc1Nc1ncc2c(n1)N(C(C)C)CC(F)(F)C(=O)N2C (centres unmarked) [Compound 13, 4-((7,7-difluoro-9-isopropyl-5-methyl-6-oxo-6,7,8,9-tetrahydro-5H-pyrimido[4,5-b][1,4]diazepin-2-yl)amino)-N-(7-((1-(4-(2,6-dioxopiperidin-3-yl)-2-fluorophenyl)piperidin-4-yl)methyl)-7-azaspiro[3.5]nonan-2-yl)-3-methoxybenzamide] | ++ (++ <0.6) | – | < 0.03 | > 10
4 | COc1cc(C(=O)NC2CC3(CCN(CC4(O)CCN(c5ccc(C6CCC(=O)NC6=O)cc5F)CC4)CC3)C2)ccc1Nc1ncc2c(n1)N(C(C)C)CC(F)(F)C(=O)N2C (centres unmarked) [Compound 33, 4-((7,7-difluoro-9-isopropyl-5-methyl-6-oxo-6,7,8,9-tetrahydro-5H-pyrimido[4,5-b][1,4]diazepin-2-yl)amino)-N-(7-((1-(4-(2,6-dioxopiperidin-3-yl)-2-fluorophenyl)-4-hydroxypiperidin-4-yl)methyl)-7-azaspiro[3.5]nonan-2-yl)-3-methoxybenzamide] | ++ (++ <0.6) | – | < 0.03 | > 10
5 | COc1cc(C(=O)NC2CCN(C(=O)CCN3CCN(c4ccc(C5CCC(=O)NC5=O)cc4)CC3)CC2)ccc1Nc1ncc2c(n1)N(C(C)C)CC1(CC1)C(=O)N2C (centres unmarked) [Compound 3, N-(1-(3-(4-(4-(2,6-dioxopiperidin-3-yl)phenyl)piperazin-1-yl)propanoyl)piperidin-4-yl)-4-((9′-isopropyl-5′-methyl-6′-oxo-5′,6′,8′,9′-tetrahydrospiro[cyclopropane-1,7′-pyrimido[4,5-b][1,4]diazepin]-2′-yl)amino)-3-methoxybenzamide] | ++ (++ <0.6) | > 10 | < 0.1 | –
6 | COc1cc(C(=O)NC2CCN(C(=O)CCN3CCN(c4ccc(C5CCC(=O)NC5=O)cc4)CC3)CC2)ccc1Nc1ncc2c(n1)N(C(C)C)CC(F)(F)C(=O)N2C (centres unmarked) [Compound 2, 4-((7,7-difluoro-9-isopropyl-5-methyl-6-oxo-6,7,8,9-tetrahydro-5H-pyrimido[4,5-b][1,4]diazepin-2-yl)amino)-N-(1-(3-(4-(4-(2,6-dioxopiperidin-3-yl)phenyl)piperazin-1-yl)propanoyl)piperidin-4-yl)-3-methoxybenzamide] | ++ (++ <0.6) | > 10 | < 0.03 | –
7 | COc1cc(C(=O)NC2CCC(CCN3CCN(c4ccc(C5CCC(=O)NC5=O)cc4F)CC3)CC2)ccc1Nc1ncc2c(n1)N(C(C)C)CC(F)(F)C(=O)N2C (centres unmarked) [Compound 43, 4-((7,7-difluoro-9-isopropyl-5-methyl-6-oxo-6,7,8,9-tetrahydro-5H-pyrimido[4,5-b][1,4]diazepin-2-yl)amino)-N-((1r,4r)-4-(2-(4-(4-(2,6-dioxopiperidin-3-yl)-2-fluorophenyl)piperazin-1-yl)ethyl)cyclohexyl)-3-methoxybenzamide] | +++ (+++: <0.3) | > 10 | < 0.03 | –

Further lines, with some results ahead:

Row | Activity: ratio of the luminescence value of each Exemplary Compound treatment group to DMSO treatment group (PLK1) | Compound | IC50 at 5 days ([1]; MRC-5 cells (normal cell line)) [µM] | IC50 (H526 cell line) [µM] | IC50 at 5 days [1] [µM]
8 | ++ (++ <0.6) | COc1cc(C(=O)NN2CCN(C(=O)CCC3CCN(c4ccc(C5CCC(=O)NC5=O)cc4F)CC3)CC2)ccc1Nc1ncc2c(n1)N(C(C)C)CC(F)(F)C(=O)N2C (centres unmarked) [Compound 11, 4-((7,7-difluoro-9-isopropyl-5-methyl-6-oxo-6,7,8,9-tetrahydro-5H-pyrimido[4,5-b][1,4]diazepin-2-yl)amino)-N-(1-(3-(1-(4-(2,6-dioxopiperidin-3-yl)-2-fluorophenyl)piperidin-4-yl)propanoyl)piperazin-1-yl)-3-methoxybenzamide] | > 10 | < 0.05 | –
9 | ++ (++ <0.6) | COc1cc(C(=O)NC2CCN(C(=O)CCN3CCN(c4cccc(C5CCC(=O)NC5=O)c4)CC3)CC2)ccc1Nc1ncc2c(n1)N(C(C)C)CC(F)(F)C(=O)N2C (centres unmarked) [Compound 4, 4-((7,7-difluoro-9-isopropyl-5-methyl-6-oxo-6,7,8,9-tetrahydro-5H-pyrimido[4,5-b][1,4]diazepin-2-yl)amino)-N-(1-(3-(4-(3-(2,6-dioxopiperidin-3-yl)phenyl)piperazin-1-yl)propanoyl)piperidin-4-yl)-3-methoxybenzamide] | > 10 | < 0.03 | –
10 | ++ (++ <0.6) | COc1cc(C(=O)NN2CCC(F)(CN3CCN(c4ccc(C5CCC(=O)NC5=O)cc4F)CC3)CC2)ccc1Nc1ncc2c(n1)N(C(C)C)CC(F)(F)C(=O)N2C (centres unmarked) [Compound 18, 4-((7,7-difluoro-9-isopropyl-5-methyl-6-oxo-6,7,8,9-tetrahydro-5H-pyrimido[4,5-b][1,4]diazepin-2-yl)amino)-N-(4-((4-(4-(2,6-dioxopiperidin-3-yl)-2-fluorophenyl)piperazin-1-yl)methyl)-4-fluoropiperidin-1-yl)-3-methoxybenzamide] | > 10 | < 0.1 | –
11 | +++ (+++: <0.3) | COc1cc(C(=O)NN2CC3(CCN(CC4CCN(c5ccc(C6CCC(=O)NC6=O)cc5F)CC4)CC3)C2)ccc1Nc1ncc2c(n1)N(C(C)C)CC(F)(F)C(=O)N2C (centres unmarked) [Compound 23, 4-((7,7-difluoro-9-isopropyl-5-methyl-6-oxo-6,7,8,9-tetrahydro-5H-pyrimido[4,5-b][1,4]diazepin-2-yl)amino)-N-(7-((1-(4-(2,6-dioxopiperidin-3-yl)-2-fluorophenyl)piperidin-4-yl)methyl)-2,7-diazaspiro[3.5]nonan-2-yl)-3-methoxybenzamide] | > 10 | < 0.03 | –
12 | ++ (++ <0.6) | COc1cc(C(=O)NC2CC3(CCN(C[C@H]4C[C@@H]5C[C@H]4CN5c4ccc(C5CCC(=O)NC5=O)cc4F)CC3)C2)ccc1Nc1ncc2c(n1)N(C(C)C)CC(F)(F)C(=O)N2C (stereo partly drawn) [Compound 27, 4-((7,7-difluoro-9-isopropyl-5-methyl-6-oxo-6,7,8,9-tetrahydro-5H-pyrimido[4,5-b][1,4]diazepin-2-yl)amino)-N-(7-(((1R,4R,5S)-2-(4-(2,6-dioxopiperidin-3-yl)-2-fluorophenyl)-2-azabicyclo[2.2.1]heptan-5-yl)methyl)-7-azaspiro[3.5]nonan-2-yl)-3-methoxybenzamide] | – | < 0.03 | –
